Experiments:
Assay type in all cases: in vivo
[1] = tested on: velvetleaf (Abutilon theophrasti); test: Test A pre-/postemergence: velvetleaf
Outline: (§1)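 Seeds were sown in loam/sand blend and sprayed preemergence (directed soil spray) and, simultaneously, postemergence at 2–10 cm, one- to two-leaf stage, using compounds in non-phytotoxic solvent with surfactant. After ~10 days in greenhouse, injury was rated visually versus untreated controls, 0 (no effect) to 100 (complete control).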

[2] = tested on: crabgrass, large (large crabgrass, Digitaria sanguinalis); test: Test A pre-/postemergence: crabgrass, large
Description: (§2) Seeds of barnyardgrass (Echinochloa crus-galli), crabgrass, large (large crabgrass, Digitaria sanguinalis), foxtail, giant (giant foxtail, Setaria faberii), morningglory (Ipomoea spp.), pigweed (Amaranthus retroflexus), velvetleaf (Abutilon theophrasti), wheat (Triticum aestivum), and corn (Zea mays) were planted into a blend of loam soil and sand and treated preemergence with a directed soil spray using test chemicals formulated in a non-phytotoxic solvent mixture which included a surfactant. At the same time these species were also treated with postemergence applications of test chemicals formulated in the same manner.
(§3) Plants ranged in height from two to ten cm and were in the one- to two-leaf stage for the postemergence treatment. Treated plants and untreated controls were maintained in a greenhouse for approximately ten days, after which time all treated plants were compared to untreated controls and visually evaluated for injury. Plant response ratings, summarized in Table A, are based on a 0 to 100 scale where 0 is no effect and 100 is complete control. A dash (-) response means no test result.

rice (Oryza sativa) = test: Test C flooded paddy test: rice; details: scale 0 to 100 (0 no effect, 100 complete control)
Description: (§4) Plant species in the flooded paddy test consisted of rice (Oryza sativa), sedge, umbrella (small-flower umbrella sedge, Cyperus difformis), ducksalad (Heteranthera limosa) and barnyardgrass (Echinochloa crus-galli) grown to the 2-leaf stage for testing. At time of treatment, test pots were flooded to 3 cm above the soil surface, treated by application of test compounds directly to the paddy water, and then maintained at that water depth for the duration of the test.
(§5) Treated plants and controls were maintained in a greenhouse for 13 to 15 days, after which time all species were compared to controls and visually evaluated. Plant response ratings, summarized in Table C, are based on a scale of 0 to 100 where 0 is no effect and 100 is complete control. A dash (-) response means no test result.

corn (Zea mays) = test: Test A pre-/postemergence: corn
Outline: as §1

[3] = tested on: morningglory (Ipomoea spp.); test: Test A pre-/postemergence: morningglory
Description: as §2, §3

[4] = tested on: barnyardgrass (Echinochloa crus-galli); test: Test A pre-/postemergence: barnyardgrass
Description: as §2, §3

[5] = tested on: ducksalad (Heteranthera limosa); test: Test C flooded paddy test: ducksalad; details: scale 0 to 100 (0 no effect, 100 complete control)
Description: as §4, §5

[6] = tested on: pigweed (Amaranthus retroflexus); test: Test A pre-/postemergence: pigweed
Outline: as §1

[7] = tested on: wheat (Triticum aestivum); test: Test A pre-/postemergence: wheat
Outline: as §1

[8] = tested on: sedge, umbrella (small-flower umbrella sedge, Cyperus difformis); test: Test C flooded paddy test: sedge, umbrella; details: scale 0 to 100 (0 no effect, 100 complete control)
Description: as §4, §5

[9] = tested on: foxtail, giant (giant foxtail, Setaria faberii); test: Test A pre-/postemergence: foxtail, giant; details: for Foxtail, Giant plant response rating: Postemergence; for Plant response rating, Foxtail, Giant: Preemergence
Description: as §2, §3

[10] = tested on: barnyardgrass (Echinochloa crus-galli); test: Test C flooded paddy test: barnyardgrass; details: scale 0 to 100 (0 no effect, 100 complete control)
Description: as §4, §5

[11] = Postemergence, 125 g ai/ha, 0 to 100 scale, 0 is no effect, 100 is complete control
[12] = Postemergence, 500 g ai/ha, visual rating on 0 to 100 scale (0 no effect, 100 complete control), approximately ten days
[13] = Preemergence, 125 g ai/ha, 0 to 100 scale (0 no effect, 100 complete control)
[14] = Preemergence, 500 g ai/ha, 0 to 100 scale, 0 is no effect, 100 is complete control
[15] = Flood (flooded paddy test), 62 g ai/ha, visual rating after 13 to 15 days
[16] = Flood (flooded paddy test), 125 g ai/ha, visual rating after 13 to 15 days
[17] = Flood (flooded paddy test), 250 g ai/ha, visual rating after 13 to 15 days
[18] = 125 g ai/ha, 0 to 100 scale, 0 is no effect, 100 is complete control
[19] = 500 g ai/ha, visual rating on 0 to 100 scale (0 no effect, 100 complete control), approximately ten days
[20] = Postemergence, 1000 g ai/ha, visual rating on 0 to 100 scale (0 no effect, 100 complete control), approximately ten days
[21] = Preemergence, 1000 g ai/ha, 0 to 100 scale, 0 is no effect, 100 is complete control
[22] = Preemergence, 125 g ai/ha, 0 to 100 scale where 0 is no effect and 100 is complete control
[23] = Preemergence, 500 g ai/ha, 0 to 100 scale (0 no effect, 100 complete control)

Cc1nn(-c2ccc(C(F)(F)F)cn2)nc1Cn1cnc(C(F)(F)F)n1 [Compound 8]
Velvetleaf plant response rating [1, 11]: 30 | Velvetleaf plant response rating [1, 12]: 80 | Plant response rating, Velvetleaf [1, 13]: 20 | Plant response rating, Velvetleaf [1, 14]: 60 | Crabgrass, Large plant response rating [2, 11]: 40 | Crabgrass, Large plant response rating [2, 12]: 80 | Plant response rating, Crabgrass, Large [2, 13]: 90 | Plant response rating, Crabgrass, Large [2, 14]: 100 | Plant response rating, Rice (rice (Oryza sativa); [15]): 0 | Plant response rating, Rice (rice (Oryza sativa); [16]): 0 | Plant response rating, Rice (rice (Oryza sativa); [17]): 0 | Plant response rating, Rice (rice (Oryza sativa); Flood, 31 g ai/ha): 0 | Corn plant response rating (corn (Zea mays); [11]): 20 | Corn plant response rating (corn (Zea mays); [12]): 40 | Plant response rating, Corn (corn (Zea mays); [13]): 0 | Plant response rating, Corn (corn (Zea mays); [14]): 0 | Morningglory plant response rating [3, 11]: 90 | Morningglory plant response rating [3, 12]: 90 | Plant response rating, Morningglory [3, 13]: 30 | Plant response rating, Morningglory [3, 14]: 90 | Barnyardgrass plant response rating [4, 11]: 10 | Barnyardgrass plant response rating [4, 12]: 80 | Plant response rating, Barnyardgrass [4, 13]: 20 | Plant response rating, Barnyardgrass [4, 14]: 80 | Plant response rating, Ducksalad [5, 15]: 0 | Plant response rating, Ducksalad [5, 16]: 0 | Plant response rating, Ducksalad [5, 17]: 45 | Plant response rating, Ducksalad ([5]; Flood, 31 g ai/ha): 0 | Pigweed plant response rating [6, 11]: 60 | Pigweed plant response rating [6, 12]: 100 | Plant response rating, Pigweed [6, 13]: 90 | Plant response rating, Pigweed [6, 14]: 100 | Wheat plant response rating [7, 11]: 0 | Wheat plant response rating [7, 12]: 20 | Plant response rating, Wheat [7, 13]: 0 | Plant response rating, Wheat [7, 14]: 10 | Plant response rating, Sedge, Umbrella [8, 15]: 0 | Plant response rating, Sedge, Umbrella [8, 16]: 0 | Plant response rating, Sedge, Umbrella [8, 17]: 75 | Plant response rating, Sedge, Umbrella ([8]; Flood, 31 g ai/ha): 0 | Foxtail, Giant plant response rating [9, 18]: 30 | Foxtail, Giant plant response rating [9, 19]: 80 | Plant response rating, Foxtail, Giant ([9]; 125 g ai/ha, 0 to 100 scale (0 no effect, 100 complete control)): 60 | Plant response rating, Foxtail, Giant ([9]; 500 g ai/ha, 0 to 100 scale, 0 is no effect, 100 is complete control): 90 | Plant response rating, Barnyardgrass [10, 15]: 0 | Plant response rating, Barnyardgrass [10, 16]: 0 | Plant response rating, Barnyardgrass [10, 17]: 0 | Plant response rating, Barnyardgrass ([10]; Flood, 31 g ai/ha): 0

FC(F)(F)c1ccc(-n2nc(Br)c(Cc3cccc(C(F)(F)F)c3)n2)nc1 [Compound 105]
Velvetleaf plant response rating [1, 20]: 40 | Velvetleaf plant response rating [1, 21]: 10 | Crabgrass, Large plant response rating [2, 20]: 50 | Crabgrass, Large plant response rating [2, 21]: 50 | Plant response rating, Rice (rice (Oryza sativa); [16]): 0 | Plant response rating, Rice (rice (Oryza sativa); [17]): 0 | Plant response rating, Rice (rice (Oryza sativa); Flood, 31 g ai/ha): 0 | Plant response rating, Rice (rice (Oryza sativa); Flood, 62 g ai/ha): 0 | Corn plant response rating (corn (Zea mays); [20]): 10 | Corn plant response rating (corn (Zea mays); [21]): 0 | Morningglory plant response rating [3, 20]: 90 | Morningglory plant response rating [3, 21]: 10 | Barnyardgrass plant response rating [4, 20]: 10 | Barnyardgrass plant response rating [4, 21]: 10 | Plant response rating, Ducksalad [5, 16]: 0 | Plant response rating, Ducksalad [5, 17]: 0 | Plant response rating, Ducksalad ([5]; Flood, 31 g ai/ha): 0 | Plant response rating, Ducksalad ([5]; Flood, 62 g ai/ha): 0 | Pigweed plant response rating [6, 20]: 100 | Pigweed plant response rating [6, 21]: 90 | Wheat plant response rating [7, 20]: 0 | Wheat plant response rating [7, 21]: 0 | Plant response rating, Sedge, Umbrella [8, 16]: 0 | Plant response rating, Sedge, Umbrella [8, 17]: 0 | Plant response rating, Sedge, Umbrella ([8]; Flood, 31 g ai/ha): 0 | Plant response rating, Sedge, Umbrella ([8]; Flood, 62 g ai/ha): 0 | Plant response rating, Barnyardgrass [10, 16]: 0 | Plant response rating, Barnyardgrass [10, 17]: 0 | Plant response rating, Barnyardgrass ([10]; Flood, 31 g ai/ha): 0 | Plant response rating, Barnyardgrass ([10]; Flood, 62 g ai/ha): 0

Cc1nn(-c2ccc(F)cc2)nc1Oc1cccc(C(F)(F)F)n1 [Compound 127]
Velvetleaf plant response rating [1, 11]: 20 | Velvetleaf plant response rating [1, 12]: 20 | Plant response rating, Velvetleaf [1, 22]: 0 | Plant response rating, Velvetleaf [1, 23]: 0 | Crabgrass, Large plant response rating [2, 11]: 10 | Crabgrass, Large plant response rating [2, 12]: 30 | Plant response rating, Crabgrass, Large [2, 22]: 10 | Plant response rating, Crabgrass, Large [2, 23]: 40 | Corn plant response rating (corn (Zea mays); [11]): 10 | Corn plant response rating (corn (Zea mays); [12]): 20 | Plant response rating, Corn (corn (Zea mays); [22]): 0 | Plant response rating, Corn (corn (Zea mays); [23]): 0 | Morningglory plant response rating [3, 11]: 20 | Morningglory plant response rating [3, 12]: 30 | Plant response rating, Morningglory [3, 22]: 0 | Plant response rating, Morningglory [3, 23]: 0 | Barnyardgrass plant response rating [4, 11]: 10 | Barnyardgrass plant response rating [4, 12]: 20 | Plant response rating, Barnyardgrass [4, 22]: 0 | Plant response rating, Barnyardgrass [4, 23]: 10 | Pigweed plant response rating [6, 11]: 40 | Pigweed plant response rating [6, 12]: 60 | Plant response rating, Pigweed [6, 22]: 0 | Plant response rating, Pigweed [6, 23]: 20 | Wheat plant response rating [7, 11]: 0 | Wheat plant response rating [7, 12]: 10 | Plant response rating, Wheat [7, 22]: 0 | Plant response rating, Wheat [7, 23]: 0 | Foxtail, Giant plant response rating [9, 18]: 10 | Foxtail, Giant plant response rating [9, 19]: 20 | Plant response rating, Foxtail, Giant ([9]; 125 g ai/ha, 0 to 100 scale where 0 is no effect and 100 is complete control): 10 | Plant response rating, Foxtail, Giant ([9]; 500 g ai/ha, 0 to 100 scale (0 no effect, 100 complete control)): 30
